Entries after “also recorded” stand apart in the source; their conditions may differ.
Experiments:
Aβ25-35 treated mice [1] = experiment: combination studies in the Aβ25-35 model in mice, all parameters examined; assay type: in vivo, Male Swiss OF-1 mice; settings: for minimal active dose: each drug, Aβ25-35 model in mice, ip; for efficacy of the drug alone in the combination studies with memantine: single drug, once 20 min before Aβ25-35
Method: (a) Administration schedule, (b) Y-maze test; (c) passive avoidance response. Administration schedule: mice received ANAVEX2-73 (0.1, 0.3 mg/kg i.p.) and/or donepezil (0.25, 0.5 mg/kg i.p.) once 20 min before Aβ25-35 (9 nmol i.c.v.) at day 0. Animals were examined between days 7 and 9.
(a) Administration schedule, (b) Y-maze test; (c) passive avoidance response. Administration schedule: mice received ANAVEX2-73 (0.1, 0.3 mg/kg i.p.) and/or memantine (0.5, 1 mg/kg i.p.) once 20 min before Aβ25-35 (9 nmol i.c.v.) at day 0. Animals were examined between days 7 and 9.
The spontaneous alternation (YMT) and passive avoidance (PAT) responses are shown. […] The 100% protection level represents the Sc.Aβ/V group and the 0% level, the Aβ25-35/V group. Only the data with the lowest doses tested are shown.
(§1) Male Swiss OF-1 mice (Depré, St Doulchard, France), aged 7-9 weeks and weighing 32±2 g were used in this study. Animals were housed in plastic cages in groups. They had free access to food and water, except during behavioral experiments, and they were kept in a regulated environment (23±1° C., 40-60% humidity) under a 12 h light/dark cycle (light on at 07:00 am). Experiments were carried out between 09:00 am and 05:00 pm, in an experimental room within the animal facility. Mice were habituated 30 min before each experiment. Animal procedures were conducted in adherence with the EU Directive 86-609.
(§2) Donepezil (E2020) was from Eisai Tsukuba Research Laboratories (Tsukuba, Japan) and memantine was from Sigma-Aldrich (St Quentin-Fallavier, France). Drugs were solubilized in physiological saline solution and administered intraperitoneally (i.p.) in a volume of 100 μl per 20 g body weight. […] (Aβ25-35) and scrambled β25-35 (Sc.Aβ) peptides from Genepep (France) were solubilized in distilled water at 3 mg/ml and stored at 20° C. until use. Peptides were aged at 37° C. for 4 days and injected i.c.v. (3 μl per mouse).
(§3) Spatial working memory was examined through the measure of spontaneous alternation performance in the Y-maze. Animals were allowed to explore the Y-shaped maze during 8 min and the number of alternations (consecutive exploration of the 3 arms) and total number of arms entered was recorded.
(§4) Contextual long-term memory was measured using the step-through type passive avoidance test. During training, animals were placed in the white compartment of the two-compartment apparatus. The step-through latency to enter the dark compartment was recorded and mice received an electric shock (0.1 mA, 3 s). During the retention session, performed 24 h after training, the step-through latency to enter the dark compartement and escape latency, to re-exit, were recorded.

Aβ25-35 treated mice [2] = experiment: spontaneous alternation in the Y-maze, Aβ25-35 treated mice; assay type: in vivo, Male Swiss OF-1 mice; settings: hydrochloride
Method: Administration schedule: mice received ANAVEX2-73 (0.1-1 mg/kg i.p.) once-a-day between days −7 and −1 and Aβ25-35 (9 nmol i.c.v.) at day 0. Animals were examined between days 7 and 9.
Administration schedule: mice received Aβ25-35 (9 nmol i.c.v.) at day 0 and ANAVEX2-73 (0.1, 0.3 mg/kg i.p.) once-a-day between days 7 and 13. Animals were examined between days 14 and 16.
Administration schedule: mice received ANAVEX2-73 (0.1, 0.3 mg/kg i.p.) and/or donepezil (0.25, 0.5 mg/kg i.p.) once 20 min before Aβ25-35 (9 nmol i.c.v.) at day 0. Animals were examined between days 7 and 9.
Administration schedule: mice received ANAVEX2-73 (0.1, 0.3 mg/kg i.p.) and/or memantine (0.5, 1 mg/kg i.p.) once 20 min before Aβ25-35 (9 nmol i.c.v.) at day 0. Animals were examined between days 7 and 9.
as §1
Donepezil (E2020) was from Eisai Tsukuba Research Laboratories (Tsukuba, Japan) and memantine was from Sigma-Aldrich (St Quentin-Fallavier, France). Drugs were solubilized in physiological saline solution and administered intraperitoneally (i.p.) in a volume of 100 μl per 20 g body weight. The amyloid-β[25-35] (Aβ25-35) and scrambled β25-35 (Sc.Aβ) peptides from Genepep (France) were solubilized in distilled water at 3 mg/ml and stored at 20° C. until use. Peptides were aged at 37° C. for 4 days and injected i.c.v. (3 μl per mouse).
as §3

Aβ25-35 treated mice [3] = experiment: step-through passive avoidance, Aβ25-35 treated mice; assay type: in vivo, Male Swiss OF-1 mice; settings: hydrochloride
Method: as §1, §2, §4

Aβ25-35 treated mice [4] = experiment: lipid peroxidation in the hippocampus, Aβ25-35 treated mice; assay type: in vivo, Male Swiss OF-1 mice; settings: hydrochloride
Method: Administration schedule: mice received ANAVEX2-73 (0.1-1 mg/kg i.p.) once-a-day between days −7 and −1 and Aβ25-35 (9 nmol i.c.v.) at day 0. Animals were examined between days 7 and 9. Their brain dissected out and assessed for lipid peroxidation (LPO) at day 10.
Administration schedule: mice received Aβ25-35 (9 nmol i.c.v.) at day 0 and ANAVEX2-73 (0.1, 0.3 mg/kg i.p.) once-a-day between days 7 and 13. Animals were examined between days 14 and 16. Their brain dissected out and assessed for lipid peroxidation (LPO) at day 17.
as §1
Tetrahydro-N,N-dimethyl-2,2-diphenyl-3-furanmethanamine hydrochloride (ANAVEX2-73) was synthesized in the laboratory (Anavex Life Sciences, Greece). […] Drugs were solubilized in physiological saline solution and administered intraperitoneally (i.p.) in a volume of 100 μl per 20 g body weight. The amyloid-β[25-35] (Aβ25-35) and scrambled β25-35 (Sc.Aβ) peptides from Genepep (France) were solubilized in distilled water at 3 mg/ml and stored at 20° C. until use. Peptides were aged at 37° C. for 4 days and injected i.c.v. (3 μl per mouse).
Mouse hippocampus was homogenized in cold methanol, centrifuged at 1,000 g 5 min and supernatant collected. Homogenate was added to a solution of FeSO4 1 mM, H2SO4 0.25 M, xylenol orange 1 mM and incubated for 30 min at RT. Absorbance was measured at 580 nm (A5801), and 10 μl of cumene hydroperoxide (CHP) 1 mM was added and incubated for 30 min at RT. Absorbance was measured at 580 nm (A5802). Lipid peroxidation was determined as CHP equivalents: CHP eq.=A5801/A5802×[CHP (nmol)]×dilution, and expressed as percentage of the Sc.Aβ/V-treated group value.

σ1 = σ1 (Homo sapiens, UniProt Q99720); settings: believed to bind; cited from earlier work
σ2 sites = σ2 sites (Homo sapiens, UniProt Q5BJF2); settings: reported binding analyses; cited from earlier work
[5] = test system: muscarinic M1-M4 receptors; settings: cited from earlier work
sodium channel site 2 = settings: screening profile; cited from earlier work
Aβ25-35 treated mice [6] = settings: cited from earlier work
[7] = delayed administration: 0.3 mg/kg ip (FIG. 2: 0.1, 0.3) once a day day 7 to 13 after Aβ25-35, measured 14 days after Aβ25-35, 0.3 mg/kg
[8] = early administration: 0.1, 0.3 mg/kg ip (FIG. 1: 0.1-1) once a day day -7 to -1 before Aβ25-35 (day 0), 7 days after Aβ25-35
[9] = administered before the Aβ25-35 peptide
[10] = mice one week after icv Aβ25-35 (Villard et al. 2011)

Sequence of σ2 sites (Q5BJF2 whole entry): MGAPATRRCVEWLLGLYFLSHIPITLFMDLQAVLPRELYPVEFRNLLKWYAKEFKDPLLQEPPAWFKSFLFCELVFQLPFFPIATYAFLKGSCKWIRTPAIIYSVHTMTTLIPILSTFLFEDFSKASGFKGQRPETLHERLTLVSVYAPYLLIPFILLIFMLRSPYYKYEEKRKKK
Sequence of σ1 (Q99720 whole entry): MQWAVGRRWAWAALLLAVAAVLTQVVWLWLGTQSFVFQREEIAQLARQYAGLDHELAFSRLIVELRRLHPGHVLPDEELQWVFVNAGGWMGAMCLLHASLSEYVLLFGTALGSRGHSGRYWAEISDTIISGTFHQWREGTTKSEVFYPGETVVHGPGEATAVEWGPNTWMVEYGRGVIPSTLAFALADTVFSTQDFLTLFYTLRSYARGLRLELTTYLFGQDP

Donepezil [reference compound]
minimal active dose (Aβ25-35 treated mice [1]): 0.25 mg/kg

CN(C)CC1CCOC1(c1ccccc1)c1ccccc1.Cl (stereo not shown) [ANAVEX2-73, Tetrahydro-N,N-dimethyl-2,2-diphenyl-3-furanmethanamine hydrochloride]
Aβ25-35-induced memory deficits, spontaneous alternation in the Y maze (Aβ25-35 treated mice [2]; [7]): significant attenuations; also recorded: effective
Aβ25-35-induced memory deficits, spontaneous alternation in the Y maze (Aβ25-35 treated mice [2]; [8]): significantly prevented; also recorded: blocked
Aβ25-35-induced memory deficits, passive avoidance response (Aβ25-35 treated mice [3]; [7]): significant attenuations; also recorded: effective
Aβ25-35-induced memory deficits, passive avoidance response (Aβ25-35 treated mice [3]; [8]): significantly prevented; also recorded: blocked
Aβ25-35-induced lipid peroxidation increase (toxicity) (Aβ25-35 treated mice [4]; [7]): significant attenuations; also recorded: effective
Aβ25-35-induced lipid peroxidation in the hippocampus (toxicity) (Aβ25-35 treated mice [4]; [8]): significantly prevented; also recorded: blocked
minimal active dose (Aβ25-35 treated mice [1]): 0.1 mg/kg
efficacy of the drug alone in the combination studies with memantine (Aβ25-35 treated mice [1]): therapeutic efficacy
affinity for sigma-1 receptors (σ1): low micromolar range
affinity for σ2 sites (σ2 sites): no affinity
affinity for muscarinic acetylcholine receptors ([5]; believed to bind): low micromolar range
IC50 ([5]; screening profile, range over M1-M4): 3.3 to 5.2 µM
IC50 (sodium channel site 2): 5.1 µM
Aβ25-35-induced P-Akt decrease (Aβ25-35 treated mice [6]; Lahmy et al. 2013): blocked
Aβ25-35-induced P-GSK-3β increase (Aβ25-35 treated mice [6]; Lahmy et al. 2013): blocked
dose preventing hippocampal cell loss (Aβ25-35 treated mice [6]; [9]): 0.3 to 1 mg/kg
dose preventing oxidative stress (Aβ25-35 treated mice [6]; [9]): 0.3 to 1 mg/kg
dose preventing the appearance of Aβ25-35-induced learning deficits (Aβ25-35 treated mice [6]; [9]): 30 µg/kg
hyperphosphorylation of Tau on pathological epitopes (AT-100 clone) (Aβ25-35 treated mice [6]; in the dose-range tested): attenuated
hyperphosphorylation of Tau on physiological epitopes (AT-8 antibody clone) (Aβ25-35 treated mice [6]; in the dose-range tested): attenuated
caspases induction (Aβ25-35 treated mice [6]; [10]): attenuating
cellular loss (Aβ25-35 treated mice [6]; [10]): attenuating
learning and memory deficits (Aβ25-35 treated mice [6]; [10]): attenuating
oxidative stress (Aβ25-35 treated mice [6]; [10]): attenuating
Aβ25-35-induced endogenous Aβ1-42 seeding (Aβ25-35 treated mice [6]; mouse, in vivo): decreasing
reversing the learning impairments (Aβ25-35 treated mice [6]; one week after icv injection of Aβ25-35 peptide): effective

CC12CC3CC(C)(C1)CC(N)(C3)C2 [memantine, Memantine, reference compound]
efficacy of the drug alone in the combination studies with memantine (Aβ25-35 treated mice [1]): therapeutic efficacy

— US9750746B2 (priority 2013, dated 2017)
